Consider 44 compounds from PubChem BioAssay (NCI).

Values joined by “and” are separate entries in the source; they are usually repeats but may differ in a detail not shown here. Equal entries are not always repeated.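 Method: 48-hour compound exposure of cells in 96-well plates, five concentrations, linear interpolation of endpoints. GI50 = concentration required for 50% inhibition of growth. TGI: concentration producing complete growth inhibition.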 Some results are limits rather than exact numbers.

Holding throughout (test): NCI tumour cell line growth inhibition, 48 h
Test [1] concerns MDA-N.
The subject of test [2] is XF 498 CNS.
Test [3] concerns KM20L2 colon.
Test [4] relates to DLD-1 colon.
Test [5] concerns DMS 114 small cell lung.
Test [6] concerns RXF-631 renal.
In test [7] the test system is HOP-18 NSCLC.
For test [8], the system named is LXFL 529 NSCLC.
For test [9], the system named is M19-MEL melanoma.
In test [10] the test system is SN12K1 renal.
Test [11] has as its system P388 leukemia.

In test [1], `COC(=O)C1C(O)C(C(=O)OC)C(C)N(C)C1C` (stereo not drawn) came in with a TGI of more than 100 µM.

With `COC(=O)C(=O)C(C(C)=O)C(=O)NCc1ccc(OC)c(OC)c1` (stereo not drawn), the TGI in [2], in test [3], in test [4], in [5], in test [6] and in test [7] was more than 100 µM each time. The TGI in test [8] and in [9] was more than 100 µM in each case.

`O=C(CC(=O)C1CCOC1=O)C(=O)Nc1cccc(Cl)c1` (stereo not drawn): the TGI in test [3], in [4], in [5], in [6], in test [7] and in [8] was more than 100 µM throughout. In [9], the TGI is more than 100 µM.

Compound `CCC/C=C/C=C/C1CC(O)C(O)C(=O)C1CO` (stereo not drawn) showed a TGI in [1] of more than 100 µM.

In [1], `COc1ccc(C(=O)c2cc(OC)c(OC)c(OC)c2)cc1OC` returned a TGI of more than 100 µM.

Consider `Cc1ccccc1C1=[N+]([O-])c2ccc(Cl)cc2C1=O`, for which the TGI is 14.3 µM in [2]; 16.9 µM in test [3]; 19.6 µM in test [4]; 16.8 µM in test [6]; 35.4 µM in test [7]; 24.3 µM in test [8]. In addition, in [9], the TGI came to 21.2 µM.

Turning to `COC(=O)C1=COC(C)C2CN3CCc4c([nH]c5ccccc45)C3CC12` (stereo not drawn), in [1], the GI50 was 31.6 µM and > 100 µM; the TGI is more than 100 µM.

In the case of `CCC1CN2CCc3cc(OC)c(OC)cc3C2CC1CC1c2cc(OC)c(OC)cc2CCN1C(=O)C1CCCN1` (stereo not drawn), the TGI in test [2] is 39.2 µM; in test [4], 77.4 µM; in test [6] it was 90.8 µM; in test [7], more than 100 µM; in test [8], 64.4 µM; in [9], 36.6 µM.

In turn, `O=C(/C=C/c1ccccc1)c1ccccc1` yielded a TGI in test [1] of more than 10 µM.

The compound `COC(c1ccc(C(C)(C)C)cc1)(c1ccc(C(C)(C)C)cc1)c1ccc(C(C)(C)C)cc1` had a TGI in test [1] of more than 100 µM.

On to `CC1CC(O)C(=O)C(O[C@@H]2C[C@@H]3CC[C@@H]4[C@H](CC[C@]5(C)C(C6=CC(=O)OC6)CC[C@]45O)[C@@]3(C=O)C[C@H]2O)O1` (stereo partly drawn), for which, in test [1], the TGI was determined as 0.199 µM.

In the case of `CCOC(=O)NC(=O)c1cn(C(CC)COC(=O)NCCCCCCNC(=O)OCC(CC)n2cc(C(=O)NC(=O)OCC)c(=O)[nH]c2=O)c(=O)[nH]c1=O` (stereo not drawn), the TGI in [3], in test [5], in test [7], in [8] and in test [9] was more than 100 µM each time.

Regarding `COC(=O)/C(=N/O)C(C(=O)C=C(C)C)C(=O)C(=O)Nc1nc2ccc([N+](=O)[O-])cc2s1` (stereo not drawn), the TGI in [2], in [3], in [8] and in test [9] was more than 100 µM each time.

For the compound `Cn1c(=O)nc2n(-c3cc(C(F)(F)F)cc(C(F)(F)F)c3)c3ccccc3nc-2c1=O`, the TGI in [2] is more than 100 µM; in test [3], more than 100 µM; in [5], more than 100 µM; in test [9], 29.5 µM.

For the compound `CC(C(=O)c1ccc(Cl)cc1)/C(=N/NC(=O)NN)C(=O)Nc1cccc(C(F)(F)F)c1` (stereo not drawn), the TGI in [2], in test [3], in test [4], in [5], in test [6] and in [7] was more than 100 µM in each case. The TGI in test [8] and in test [9] was more than 100 µM in each case.

`COc1ccc(C(CC(=O)c2ccc3c(c2)OCO3)c2c(O)c3ccccc3oc2=O)cc1OC` (stereo not drawn) yielded a TGI in test [1] of more than 100 µM.

For `O=C(N/C(=C\c1ccc([N+](=O)[O-])cc1)c1nc2ccccc2[nH]1)c1ccccc1`, the TGI in test [3], in [4], in [5], in test [6], in test [7] and in test [8] was more than 100 µM each time. For the same compound, the TGI in test [9] was more than 100 µM.

In the case of `CC(=O)N1CCN(c2ccc(OCC3COC(Cn4ccnc4)(c4ccc(Cl)cc4Cl)O3)cc2)CC1` (stereo not drawn), the TGI in [3] is more than 100 µM; in test [4] it was more than 100 µM; in test [5], 43.7 µM; in test [7], more than 100 µM; in test [8] it was more than 100 µM; in [9], 45.1 µM.

Compound `Cn1c(=O)c2c(nc(C(=N)SCC(=O)O)n2C)n(C)c1=O` returned a TGI in test [1] of more than 100 µM.

On to `CC(C)CCC[C@@H](C)C1CCC2[C@@H]3CC=C4C[C@@H](C(=O)NCCN(C)C)CC[C@]4(C)C3CC[C@@]21C` (stereo partly drawn), for which the TGI in test [2] is 48.7 µM; in [3], more than 100 µM; in [4], more than 100 µM; in test [5], 38.1 µM; in [7] it was 66.6 µM; in [8], more than 100 µM. In [9], this compound yielded a TGI of 39.7 µM.

For the compound `Cc1ccc(C)c(N2C/C(=N\NC(=O)CC#N)C(c3nc4ccccc4s3)C(=O)C2=O)c1` (stereo not drawn), the TGI in [2], in test [3], in [4], in test [5], in test [7] and in test [8] was more than 100 µM each time. The compound further showed a TGI in test [9] of more than 100 µM.

In turn, `c1ccc2c(c1)[nH]c1c2cc[n+]2cc3c(cc12)CCCC3` gave a TGI in [1] of 3.21 µM.

Turning to `COc1c(C)n(CCO)ccc1=O`, the TGI in [2], in test [3], in test [4], in [5], in test [6] and in test [8] was more than 100 µM each time. In [9], the TGI was more than 100 µM.

Consider `COc1cccc(/C=N/[N-]C(=O)c2ccncc2)c1[O-].COc1cccc(/C=N/[N-]C(=O)c2ccncc2)c1[O-].[O]=[U](=[O])([OH2+])[OH2+]`, for which the GI50 is 4.75 µM in [2]; 3.14 µM in [3]; 4.19 µM in test [4]; 3.3 µM in [5]; 12.1 µM in [7]; more than 33.7 µM in test [8]. In test [9], the GI50 was 5.83 µM. Also, the TGI was 37.6 µM in [2]; more than 100 µM in test [3]; more than 100 µM in test [4]; 12.5 µM in test [5]; 88.6 µM in test [7]; more than 100 µM in [8]. The same compound returned a TGI in [9] of more than 100 µM.

Consider `CC(C)(C)c1ccc2c(c1)S(=O)(=O)Nc1ccc(Cl)cc1NS(=O)(=O)c1cc(C(C)(C)C)ccc1OCCOCCOCCO2`, for which the TGI in [4], in test [5], in [7] and in test [9] was more than 100 µM throughout.

`CCOC(=O)NC(=O)c1cn(C2CCCCC2)c(=O)[nH]c1=O`: the TGI in test [2], in test [3], in test [4], in test [6], in [7] and in test [8] was more than 100 µM throughout. Besides, the TGI in [9] was more than 100 µM.

For `CO[C@H]1Nc2c(ccc(C)c2O)C(=O)N2C=C(/C=C/C(N)=O)C[C@@H]12`, the TGI was 0.0283 µM in test [1]; 0.891 µM in test [3]; more than 47.6 µM in test [4]; 0.044 µM in test [5]; more than 100 µM in test [7]; 0.0473 µM in [10]. Besides, the figures for the TGI in [11] and in test [9] were 0.283 µM and 0.0939 µM, respectively.

`Nc1c(-c2ccccc2-c2c(N)[n+]([O-])c3ccccc3[n+]2[O-])[n+]([O-])c2ccccc2[n+]1[O-]`: the TGI is more than 100 µM in [3]; more than 100 µM in test [4]; 27.2 µM in test [5]; more than 86 µM in test [7]; more than 100 µM in test [8]; 60.3 µM in test [9].

`CCCC(=O)C1=C(O)C(Cc2c(O)c(C)c(O)c(C(=O)CCC)c2O)=C(O)C(C)(C)C1=O` displayed a TGI in test [1] of more than 50 µM.

Consider `O=[N+]([O-])c1cccc(C2=NOC(C3CCCCC3)C2)c1` (stereo not drawn), for which the TGI in test [4], in [5], in test [6], in test [7], in test [8] and in test [9] was more than 100 µM throughout.

In the case of `CCOP(=O)(OCC)C(C(=O)OC)C(=O)C(=O)Nc1ccc(Cl)cc1Cl` (stereo not drawn), the TGI in test [3], in [4], in test [5], in [7], in [8] and in test [9] was more than 100 µM in each case.

As to `OC(c1cc(-c2ccc(C(F)(F)F)cc2)nc(C(F)(F)F)c1)C1CCCCN1` (stereo not drawn), the TGI in test [1] stood at 3.04 µM.

As to `COC(=O)c1cc2c(o1)-c1nccc3c1c(nc1ccccc13)C2=O`, in test [1], the GI50 is 0.691 µM and the TGI amounted to 2.22 µM.

With `Nc1ccccc1C(=O)/C=C/c1c(O)ccc2ccccc12`, the TGI in test [3], in [4], in test [5], in [6], in test [7] and in test [8] was more than 100 µM throughout. This compound yielded a TGI in [9] of 43.4 µM.

For `CCC(C)(O)c1cnc(CC(C)C)c(=O)n1O` (stereo not drawn), the TGI in test [1] is more than 100 µM.

On to `CC(C)CC(C/C=C1/CC(CO)(COC(=O)C(C)(C)C)OC1=O)CC(C)C` (stereo not drawn), for which, in test [1], the GI50 was 0.2 µM and 0.849 µM; the TGI was 6.28 µM and 17.6 µM.

For `Nc1nc(-c2ccc(Cl)c([N+](=O)[O-])c2)cs1`, the TGI in [2] was 86.6 µM; in test [3], more than 100 µM; in test [4], more than 100 µM; in [5] it was more than 100 µM; in test [6], more than 100 µM; in test [7], more than 100 µM. Further, the TGI in [8] and in test [9] was more than 100 µM each time.

With `CN(C)CCNCCN`, the TGI in test [1] was more than 100 µM.

For the compound `Nc1ccccc1O.O.O=C(O)C1[O][Sb][O]C1C(=O)O` (stereo not drawn), in test [1], the GI50 is 17.4 µM and the TGI is 42.2 µM.

For `CCOCN1COCN(C)C1=O`, the TGI in [2], in test [3], in test [4], in [6], in [7] and in test [9] was more than 100 µM in each case.

Turning to `CC1=C(C#N)C(=O)CC(c2ccc(Cl)cc2)N(C)N1` (stereo not drawn), the TGI in [2], in [4], in test [5], in test [7] and in test [8] was more than 100 µM in each case.

As to `CN(C)C(=S)SSC(=S)N(C)C`, the TGI in test [2] was more than 88.3 µM; in test [1], 30.3 µM and 50.9 µM; in [3], more than 100 µM; in test [4], more than 64 µM; in test [5], 17.4 µM; in [6] it was more than 100 µM. For the same compound, the TGI is more than 100 µM in [7], more than 100 µM in [8] and more than 40 µM in test [9].

`NC(=O)C(=O)CC(=O)c1ccccc1NC1=CC(=O)C(=O)c2ccccc21`: the TGI was more than 100 µM in test [2]; more than 100 µM in test [3]; more than 100 µM in test [4]; 68.2 µM in test [5]; more than 100 µM in test [6]; more than 100 µM in test [7]. Also, the TGI is more than 100 µM in test [8] and 22.8 µM in test [9].

Turning to `CCN1c2ccccc2-c2c3c1cc(C)cc3c1ccccc1[n+]2CC`, the TGI in test [4] worked out at 17.8 µM; in test [5] it was 5.84 µM; in test [6], 43.4 µM; in [8], 1.86 µM; in test [9], 1.27 µM.
